# Experimental data: ChEMBL document CHEMBL5729487, “Small molecule inhibition of transcription factor SALL4 and uses thereof” (2022)
# Target: T1, Sal-like protein 4 (Homo sapiens, UniProt Q9UJQ4)
# T1 sequence (Q9UJQ4 whole entry): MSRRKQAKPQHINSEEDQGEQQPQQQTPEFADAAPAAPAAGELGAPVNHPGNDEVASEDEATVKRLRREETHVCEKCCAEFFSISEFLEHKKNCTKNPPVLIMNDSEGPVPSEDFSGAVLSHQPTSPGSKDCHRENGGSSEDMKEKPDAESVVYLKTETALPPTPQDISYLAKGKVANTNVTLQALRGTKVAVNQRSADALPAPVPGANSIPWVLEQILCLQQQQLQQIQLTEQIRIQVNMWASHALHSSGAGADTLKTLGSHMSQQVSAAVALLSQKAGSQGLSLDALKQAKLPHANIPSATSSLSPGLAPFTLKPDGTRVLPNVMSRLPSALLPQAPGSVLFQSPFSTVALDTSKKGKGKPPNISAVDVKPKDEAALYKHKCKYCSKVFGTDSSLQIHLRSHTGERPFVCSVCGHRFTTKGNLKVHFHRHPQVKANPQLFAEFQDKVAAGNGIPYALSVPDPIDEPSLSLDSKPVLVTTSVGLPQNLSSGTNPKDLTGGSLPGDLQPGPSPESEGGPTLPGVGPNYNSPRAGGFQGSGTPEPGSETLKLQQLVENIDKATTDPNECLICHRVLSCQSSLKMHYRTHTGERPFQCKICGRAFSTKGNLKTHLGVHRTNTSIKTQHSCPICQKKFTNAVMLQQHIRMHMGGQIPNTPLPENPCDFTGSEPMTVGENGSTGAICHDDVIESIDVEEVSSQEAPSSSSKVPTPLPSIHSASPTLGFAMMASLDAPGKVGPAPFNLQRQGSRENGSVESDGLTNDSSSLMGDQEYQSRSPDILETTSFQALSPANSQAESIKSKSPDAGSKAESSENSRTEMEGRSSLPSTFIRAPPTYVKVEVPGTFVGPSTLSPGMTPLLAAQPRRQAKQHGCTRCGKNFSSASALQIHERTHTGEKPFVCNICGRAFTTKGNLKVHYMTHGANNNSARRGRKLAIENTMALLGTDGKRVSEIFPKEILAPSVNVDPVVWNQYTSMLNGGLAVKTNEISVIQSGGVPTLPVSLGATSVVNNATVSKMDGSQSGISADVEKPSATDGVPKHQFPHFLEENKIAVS
# Assay: TBD: TBD
row,IC50,Compound
1,162 nM,CC(C)(C)Nc1c(-c2c(O)ccc3ccccc23)nc2ccccn12
2,619 nM,COc1ccc(Nc2c(-c3c(O)ccc4ccccc34)nc3cnccn23)cc1
3,109 nM,Oc1ccc2ccccc2c1-c1nc2ccccn2c1NC1CC1
4,623 nM,COC(=O)c1cccc(Nc2c(-c3c(O)ccc4ccccc34)nc3cnccn23)c1
5,2770 nM,Oc1ccc2ccccc2c1-c1nc2ccccn2c1NC1CCCCC1
6,783 nM,CC(C)(C)Nc1c(-c2c(O)ccc3ccccc23)nc2cnccn12
7,1510 nM,Oc1ccc2ccccc2c1-c1nc2ccccn2c1NCc1ccccc1
8,335 nM,Oc1ccc2ccccc2c1-c1nc2cnccn2c1NC1CC1
9,1360 nM,Oc1ccc2ccccc2c1-c1nc2cnccn2c1NCCN1CCOCC1
10,288 nM,COc1cccc(CNc2c(-c3c(O)ccc4ccccc34)nc3cnccn23)c1
11,594 nM,Oc1ccc2ccccc2c1-c1nc2cnccn2c1NCc1ccccc1
12,434 nM,COCCNc1c(-c2c(O)ccc3ccccc23)nc2cnccn12
13,2490 nM,COc1ccc(CCNc2c(-c3c(O)ccc4ccccc34)nc3cnccn23)cc1OC
14,2230 nM,Oc1ccc2ccccc2c1-c1nc2ccccn2c1NCCN1CCOCC1
15,498 nM,N#Cc1ccc(Nc2c(-c3c(O)ccc4ccccc34)nc3cnccn23)cc1
16,616 nM,Oc1ccc2ccccc2c1-c1nc2cnccn2c1NC1CCCCC1
